Measured values reported in patent publication US20220256902A1, “NOVEL STEVIOL GLYCOSIDE, METHOD FOR PRODUCING SAME, AND SWEETENER COMPOSITION CONTAINING SAME” (SUNTORY HOLDINGS LIMITED, priority 2019, published 2022).

Key:
[1] = Evaluation of sweetness level: choosing the sugar-added sample of equivalent sweetness intensity; format: in vivo
Experimental: In order to evaluate the sweetness levels of Novel steviol glycosides A and B, samples were prepared by adding sugar to pure water to give Brix of 3.0 to 5.0 in 0.5 increments. Compounds 15 and 17 obtained by the chemical syntheses were used as Novel steviol glycosides A and B, respectively, where 48 mg of each sample was dissolved in 400 mL of pure water to be tested. In addition, samples were also prepared for comparison by dissolving 48 mg of each of Reb.A, Reb.D and Reb.M in 400 mL of pure water.

[2] = Sensory evaluation of taste quality of beverage samples (sweetness on-set, lingering sweet aftertaste, bitterness, lingering bitter aftertaste); format: in vivo
Text: In order to evaluate the taste quality of various steviol glycosides, Reb.A, Reb.D, Reb.M, sugar and Novel steviol glycoside A (Compound 15) were each added to pure water to prepare beverage samples. All of the beverage samples were adjusted to have final sweetness level (Brix) of 5 in terms of sugar (sucrose), and thus the sweetness levels of Reb.A, Reb.D, Reb.M and Novel steviol glycoside A (Compound 15) were 312, 317, 341 and 354, respectively.
(§1) The resulting beverage samples were subjected to sensory evaluation for rating the attributes, which were sweetness on-set, lingering sweet aftertaste, bitterness and lingering bitter aftertaste. Panelists who had been trained about sensory attributes of sweeteners (7 members) evaluated based on the following evaluation criteria. For each evaluation item, the steviol glycosides were scored in 0.5 increments provided that the score of sugar was 3. […]
as §1

[3] = evaluation with Novel steviol glycoside A (Compound 15), restated averages of Table 2
[4] = evaluation with Novel steviol glycoside B (Compound 17), restated averages of Table 3

SMILES: C=C1CC23CCC4C(C)(C(=O)OC5OC(CO)C(O)C(O)C5OC5OCC(O)C(O)C5O)CCCC4(C)C2CCC1(OC1OC(CO)C(O)C(OC2OC(CO)C(O)C(O)C2O)C1OC1OC(CO)C(O)C(O)C1O)C3 (stereo not shown) [Novel steviol glycoside A]
- sweetness level, times higher in average than that of sugar ([1]; average of panelists, 48 mg in 400 mL pure water): about 354 times
- sweetness levels taken for adjusting the beverage samples to Brix 5 in terms of sugar [1, 3]: 354
- sweetness (sensory evaluation, in words) ([2]; beverage samples in pure water, Brix 5 in terms of sugar, vs Reb.A, Reb.D, Reb.M, FIG. 14): less sweetness
- lingering sweet and bitter aftertastes ([2]; general statement in the description): less lingering sweet and bitter aftertastes

SMILES: C=C1C[C@@]23CC[C@H]4[C@@](C)(CCC[C@@]4(C)C(=O)O[C@@H]4O[C@H](CO)[C@@H](O)[C@H](O[C@@H]5O[C@H](CO)[C@@H](O)[C@H](O)[C@H]5O)[C@H]4O[C@@H]4O[C@H](CO)[C@@H](O)[C@H](O)[C@H]4O)[C@@H]2CC[C@]1(O[C@@H]1O[C@H](CO)[C@@H](O)[C@H](O[C@@H]2O[C@H](CO)[C@@H](O)[C@H](O)[C@H]2O)[C@H]1O[C@@H]1O[C@H](CO)[C@@H](O)[C@H](O)[C@H]1O)C3 [Reb M, rebaudioside M]
- sweetness levels taken for adjusting the beverage samples to Brix 5 in terms of sugar [1, 3]: 341
- sweetness levels taken for adjusting the beverage samples to Brix 5 in terms of sugar [1, 4]: 324

SMILES: C=C1C[C@@]23CC[C@H]4[C@@](C)(CCC[C@@]4(C)C(=O)O[C@@H]4O[C@H](CO)[C@@H](O)[C@H](O)[C@H]4O)[C@@H]2CC[C@]1(O[C@@H]1O[C@H](CO)[C@@H](O)[C@H](O[C@@H]2O[C@H](CO)[C@@H](O)[C@H](O)[C@H]2O)[C@H]1O[C@@H]1O[C@H](CO)[C@@H](O)[C@H](O)[C@H]1O)C3 [Reb A, rebaudioside A]
- sweetness levels taken for adjusting the beverage samples to Brix 5 in terms of sugar [1, 3]: 312
- sweetness levels taken for adjusting the beverage samples to Brix 5 in terms of sugar [1, 4]: 288

SMILES: C=C1C[C@@]23CC[C@H]4[C@@](C)(CCC[C@@]4(C)C(=O)O[C@@H]4O[C@H](CO)[C@@H](O)[C@H](O)[C@H]4O[C@@H]4O[C@H](CO)[C@@H](O)[C@H](O)[C@H]4O)[C@@H]2CC[C@]1(O[C@@H]1O[C@H](CO)[C@@H](O)[C@H](O[C@@H]2O[C@H](CO)[C@@H](O)[C@H](O)[C@H]2O)[C@H]1O[C@@H]1O[C@H](CO)[C@@H](O)[C@H](O)[C@H]1O)C3 [Reb D, rebaudioside D]
- sweetness levels taken for adjusting the beverage samples to Brix 5 in terms of sugar [1, 3]: 317
- sweetness levels taken for adjusting the beverage samples to Brix 5 in terms of sugar [1, 4]: 310
